In patent US8999956B2, “N-[(het)arylalkyl)] pyrazole(thio)carboxamides and their heterosubstituted analogues” (Bayer Intellectual Property GmbH, priority 2010, dated 2015):
Values joined by “and” are separate entries in the source; they are usually repeats but may differ in a detail not shown here. Identical values can stand only once. Like-named read-outs stand apart in the source and are kept apart here.

Tests used:
Phakopsora pachyrhizi = assay: In vivo protective test on Phakopsora pachyrhizi (soybeans); conditions: Table N, 250 ppm of active ingredient, evaluated 11 days after inoculation
Sphaerotheca fuliginea = assay: In vivo preventive test on Sphaerotheca fuliginea (cucumber); conditions: 500 ppm of active ingredient, evaluated 7 days after inoculation
How it was run: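 Young cucumber plants sprayed with compound (in DMF with alkylarylpolyglycolether emulsifier, diluted in water) at the stated application rate. Inoculated one day later with aqueous Sphaerotheca fuliginea spore suspension. Plants then held in greenhouse at approximately 23° C and approximately 70% relative humidity.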

[1] = system: Fusarium nivale (var. majus); assay: In vivo preventive test on Fusarium nivale (wheat); conditions: 500 ppm of active ingredient, evaluated 5 days after inoculation
Experimental: (§1) Solvent: 49 parts by weight of N,N-dimethylacetamide Emulsifier: 1 part by weight of alkylaryl polyglycol ether To produce a suitable preparation of active compound, 1 part by weight of active compound or active compound combination is mixed with the stated amounts of solvent and emulsifier, and the concentrate is diluted with water to the desired concentration. To test for preventive activity, young plants are sprayed with the preparation of active compound or active compound combination at the stated rate of application. After the spray coating has been dried, the plants are slightly injured by using a sandblast and afterwards they are sprayed with a conidia suspension of Fusarium nivale (var. majus).

Uromyces appendiculatus = assay: In vivo preventive test on Uromyces appendiculatus (beans); conditions: 100 ppm of active ingredient, evaluated 10 days after inoculation
How it was run: (§2)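 Young plants sprayed preventively at the stated application rate with compound dissolved in acetone/N,N-dimethylacetamide plus alkylaryl polyglycol ether emulsifier and diluted with water to the desired concentration.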

Cochliobolus miyabeanus = assay: In vivo protective test on Cochliobolus miyabeanus (rice); conditions: Table M, 250 ppm of active ingredient, evaluated 4 days after inoculation
Alternaria solani = assay: In vivo preventive test on Alternaria solani (tomato); conditions: 500 ppm of active ingredient, evaluated 7 days after inoculation
How it was run: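 Preventive set-up: Alternaria solani spores, as aqueous suspension, applied to young plants one day after spraying. Spray contained active compound formulated with N,N-dimethylformamide and emulsifier, water-diluted to the desired application rate.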

[2] = system: Blumeria graminis fsp. hordei; assay: In vivo preventive test on Blumeria graminis (barley); conditions: 500 ppm of active ingredient, evaluated 7 days after inoculation
Experimental: as §1, with “dusted” for “slightly injured by using a sandblast and afterwards they are sprayed”, “spores” for “a conidia suspension”, “Blumeria graminis fsp. hordei.” for “Fusarium nivale (var. majus).”

Puccinia triticina = assay: In vivo preventive test on Puccinia triticina (wheat); conditions: Table K, 500 ppm of active ingredient, evaluated 8 days after inoculation
Septoria tritici = assay: In vivo preventive test on Septoria tritici (wheat); conditions: 500 ppm of active ingredient, evaluated 21 days after inoculation
How it was run: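 Compound formulated in N,N-dimethylacetamide with alkylaryl polyglycol ether emulsifier and diluted in water to the stated rate. Young wheat plants sprayed preventively; after the deposit dried, they were inoculated with a Septoria tritici spore suspension.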

Venturia inaequalis = assay: In vivo preventive test on Venturia inaequalis (apple scab); conditions: 100 ppm of active ingredient, evaluated 10 days after inoculation
How it was run: as §2

[3] = system: aflatoxines produced by Aspergillus parasiticus; assay: microbe, parasite or virus in culture; type: cell-based
Pyricularia oryzae = conditions: in vivo
Pyrenophora teres = assay: In vivo preventive test on Pyrenophora teres (barley); conditions: 500 ppm of active ingredient, evaluated 7-9 days after inoculation
How it was run: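 Preventive test: young barley plants received a water-diluted spray of compound formulated with DMF solvent plus alkylaryl polyglycol ether emulsifier, at the stated rate. Inoculation with an aqueous spore suspension of Pyrenophora teres followed one day after spraying.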

Aspergillus parasiticus = assay: microbe, parasite or virus in culture; type: cell-based
Botrytis cinerea = assay: In vivo preventive test on Botrytis cinerea (beans); conditions: Table L, 500 ppm of active ingredient, lesion size 2 days after inoculation
How it was run: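 Young bean plants sprayed preventively with compound in acetone/dimethylacetamide/emulsifier diluted in water; after drying, each leaf inoculated with 2 agar pieces bearing Botrytis cinerea. Kept dark at 20° C, 100% humidity; lesion size scored at 2 days as % efficacy (0% = untreated, 100% = no disease).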

Leptosphaeria nodorum = assay: In vivo preventive test on Leptosphaeria nodorum (wheat); conditions: 500 ppm of active ingredient, evaluated 7-9 days after inoculation
How it was run: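 Plants were inoculated with aqueous L. nodorum spores one day after a protective spray. The spray contained the compound at the stated rate, as a water-diluted concentrate in N,N-dimethylacetamide plus alkylaryl polyglycol ether emulsifier.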

[4] = log P by HPLC on reversed-phase column (EEC Directive 79/831 Annex V.A8); type: physicochemical
Experimental: In table 1, the log P values were determined in accordance with EEC Directive 79/831 Annex V.A8 by HPLC (High Performance Liquid Chromatography) on a reversed-phase column (C18), using the method described below: Temperature: 40° C.; […]

Fusarium graminearum = conditions: in vivo

SMILES	Efficacy (Phakopsora pachyrhizi) [%]	Efficacy (Sphaerotheca fuliginea) [%]	Efficacy [1] [%]	Efficacy (Uromyces appendiculatus) [%]	Efficacy (Cochliobolus miyabeanus) [%]	Efficacy (Alternaria solani) [%]	Efficacy [2] [%]	Efficacy (Puccinia triticina) [%]	Efficacy (Septoria tritici) [%]	Efficacy (Venturia inaequalis) [%]	% Inhibition of Aflatoxin at 50 μM ([3]; 50 µM) [%]	Efficacy (Pyricularia oryzae) [%]	Efficacy (Pyrenophora teres) [%]	% Inhibition of fungal growth at 50 μM (Aspergillus parasiticus; 50 µM) [%]	Efficacy (Botrytis cinerea) [%]	% Inhibition of Aflatoxin at 50 μM [3] [%]	Efficacy (Leptosphaeria nodorum)	logP [4]	% Inhibition of fungal growth at 50 μM (Aspergillus parasiticus) [%]	Efficacy (Fusarium graminearum) [%]
CC(C)CC(C)C1CCCC1NC(=O)c1c(C(F)F)nn(C)c1Cl (mixture of isomers) [Example 311]	98	90	100	100	97	100	100	100	93	100	100	96	100	97						
CC(C)CC(C)C1CCCC1NC(=O)c1c(C(F)F)nn(C)c1F (mixture of isomers) [Example 315]		71	100	100	97	100	100	95	100	100		95	100	100	70	100				
CCCCC1CCCCC1NC(=O)c1c(C(F)F)nn(C)c1F (single isomer, unassigned) [Example 329]		100	100	100	98	100	100	100	100	100		98	100	97	99	100	90%	3.80 isomer A		
CCCCC1CCCCC1NC(=O)c1c(C(F)F)nn(C)c1F (single isomer, unassigned) [Example 330]		88	100		85	95	100	80	78			80	100	87		100		4.06 isomer B		
CC(C)CC(C)C1CCCCC1NC(=O)c1c(C(F)F)nn(C)c1F (single isomer, unassigned) [Example 338]	98	100	100		96	100	100	100	100	100		97	100			100		4.73 isomer B	100	
CCCC1CCCCC1NC(=O)c1c(C(F)F)nn(C)c1F (single isomer, unassigned) [Example 344]		100	100		95	100	100	100	94			95	100	89	100	100	90%	3.61 isomer B		
Cn1nc(C(F)F)c(C(=O)NC2CCCCC2CCC(C)(C)C)c1F (single isomer, unassigned) [Example 357]	85	100	100	100	93	100	100	100	100	100		97	100					4.50 isomer A		
Cn1nc(C(F)F)c(C(=O)N(CCOc2c(Cl)cccc2Cl)C2CC2)c1Cl [Example 161]							100	90	80				100				90%	3.69		86
CC(CCc1c(Cl)cc(Cl)cc1Cl)NC(=O)c1c(C(F)F)nn(C)c1F (centres unmarked) [Example 215]		100	71		98	95	100		90			98	100			100		4.29	100	
CC(CCc1c(Cl)cc(Cl)cc1Cl)NC(=O)c1c(C(F)F)nn(C)c1Cl (centres unmarked) [Example 216]		100	93		90			78	100			95	100			100		4.53	100	
CON(C(=O)c1c(C(F)F)nn(C)c1F)C(C)CCc1c(Cl)cc(Cl)cc1Cl (centres unmarked) [Example 217]		100	100		98		100	89	100	100		97	100			100	78%	4.77	100	
Cn1nc(C(F)F)c(C(=O)N(CC#Cc2ccccc2)C2CC2)c1F [Example 271]		98					78	89	88				95				90%	3.19		93
CCCCC1CCCC1NC(=O)c1c(C(F)F)nn(C)c1F (centres unmarked) [Example 306]		95	100	70	95	100	100	95		99		95	100		94	100		3.59	100	
CC(C)CC(C)C1CCCCC1NC(=O)c1c(C(F)F)nn(C)c1F (centres unmarked) [Example 339]	98	100	100	100	92	100	100	100	100	100		98	94			100	70% and 94%	4.54	100	
